The text below walks through data of paper PMC3006138, “Fexinidazole – A New Oral Nitroimidazole Drug Candidate Entering Clinical Development for the Treatment of Sleeping Sickness” (PLoS Neglected Tropical Diseases, 2010).

Like-named read-outs stand apart in the source and are kept apart here.

In one data set the test system is T. b. brucei GVR35. Description: Chronic (stage 2) infection mouse model. The class given is in vivo. The method, then:
Female NMRI mice were infected via intraperitoneal injection with bloodstream forms of T. b. rhodesiense STIB900 or T. b. gambiense 130R and treated with test drugs daily for 4 consecutive days, starting on day 3 or 7 after infection, respectively, or with bloodstream forms of T. b brucei GVR35 and treated daily from day 21 after infection for 5 days. Parasitemia was evaluated by tail blood examination and surviving, aparasitaemic mice at 60, 90, or 180 days, respectively, were considered cured.

Data set [1] can be described thus: Hepatocyte intrinsic clearance and metabolite profile. Type of data set: in vitro ADME, mouse. The following applies: male, CD-1, mouse, cryopreserved hepatocytes, 1 µM. As to the method: (§1) Fexinidazole was incubated with cryopreserved hepatocytes from male CD-1 mice, male Sprague Dawley rats, male beagle dogs, male cynomolgus monkeys, and from pooled white or African-American human donor samples (purchased commercially), at concentrations of 1 µM and 10 µM. […] The incubated samples were analyzed by LC-MS after extraction into acetonitrile.
(§2) A quality control analysis of fexinidazole was performed via 1H-NMR in DMSO and LC- […]
(§3) provided by the Swiss Tropical Institute (Basel, Switzerland).
(§4) Reagents and solvents were of analytical grade and obtained from Sigma-Aldrich (St. Louis, […]
(§5) Cryopreserved hepatocytes from the male CD1 mouse, lot CSI; male Sprague Dawley rat, lot LPL; male beagle dog, lot BWX; male cynomolgus monkey, lot EHH; and pooled human samples, lot MJI, were purchased from In Vitro Technologies Inc (Baltimore, Maryland, […]
(§6) 5.4. In vitro Incubations
(§7) On the day of the experiment a 10 mM stock solution of fexinidazole in DMSO was prepared and, within 3 hours, aliquots of this freshly prepared solution, after suitable dilution, were added to the incubation matrix, to reach fexinidazole final concentrations of 1 and 10 µM. The final percentage of DMSO was 0.01% in the incubation samples for the […]
(§8) On the day of experiment, the cryopreserved hepatocytes were thawed following the detailed instructions provided by the supplier.
(§9) The number of viable cells was determined using a Trypan Blue exclusion method.
(§10) 5.4.1. Intrinsic Clearance Study […]
(§11) µM with mouse, rat, dog, monkey and human hepatocytes (300000 cells/mL for the mouse and 1 million cells/mL for the other species) in a final incubation volume of 0.75 mL […]
(§12) Incubations were performed in duplicate in a 48-well plate under shaking. Sampling was performed using an automatic liquid handling system (Multiprobe II EX, Packard). At 0, 1, 5, 10, 15, 20, 30, 60 and 120 minutes, 50 µL aliquots of the incubates were taken, then 80 µL of ice-cold acetonitrile and 20 µL of 1 µM warfarin in acetonitrile (internal standard) were added, and samples centrifuged at 2000 rpm for 20 min. The supernatant was analyzed by LC-MS/MS. […]
(§13) the medium alone at t = 0 and 120 minutes.
(§14) For the determination of phase I and phase II activity of hepatocytes, 7-ethoxycoumarin (7-EC) 1 µM, and 7-hydroxycoumarin (7-HC) 30 µM were used as positive controls and incubated under the same conditions as fexinidazole. Aliquots of incubates were taken at 0, 10, 20, 30, 60 and 120 minutes and processed as fexinidazole samples.
(§15) 5.4.2. Metabolite Profile Study
(§16) For metabolite profiling, fexinidazole was incubated at a concentration of 10 µM with mouse, rat, dog, monkey and human hepatocytes (300000 cells/mL for the mouse and 1 million cells/mL for the other species) in a final incubation volume of 2 mL Leibovitz L-15 […]
(§17) Aliquots of the incubation samples were taken at t = 0, 30 and 120 minutes; the metabolism was stopped by the addition of an equal volume of cold acetonitrile and the samples centrifuged at 1500 rpm for 20 min. The supernatant was stored at -20°C until analysis. Control incubations were performed with the compound in the medium alone […]
(§18) 5.5. Analysis of Samples for Intrinsic Clearance Determination
(§19) The analysis of the samples for intrinsic clearance determination was performed by an LC-MS/MS method, using the following conditions:
(§20) HPLC Equipment and Conditions
(§21) HPLC system Agilent 1100 binary pump (Agilent, Palo Alto, USA)
(§22) Autosampler CTC Pal (Alfatech, San Jose, USA)
(§23) Analytical column Guard Column SB-C8 4.6 x 12.5 mm, 5 µm (Zorbax)
(§24) Column temperature ambient
(§25) Mobile phase A 10 mM ammonium formate pH 4.0: acetonitrile (95:5, v:v)
(§26) Mobile phase B 10 mM ammonium formate pH 4.0: acetonitrile (5:95, v:v) […]
(§27) Gradient conditions Step Total time (min) flow (µL/min) %A % B […]
(§28) MS Equipment and Conditions
(§29) Mass spectrometer API 4000 Triple Quadrupole (MDS-Sciex, Toronto, […]
(§30) Source Turbo Ion Spray (TIS)
(§31) Ion mode Positive for fexinidazole and 7-EC.
(§32) Negative for 7-HC, 7-HC sulphate and 7-HC glucuronide.

Experiment in data set [2]: as above
The class given is in vitro ADME, rat. The following applies: male, Sprague Dawley, rat, cryopreserved hepatocytes, 1 µM. The method, then: as §1, §2, §3, §4, §5, §6, §7, §8, §9, §10, §11, §12, §13, §14, §15, §16, §17, §18, §19, §20, §21, §22, §23, §24, §25, §26, §27, §28, §29, §30, §31, §32

The target of the next data set is CYP1A2 (Homo sapiens, UniProt P05177). Put plainly: In vitro CYP-450 metabolism. Type of data set: in vitro ADME. The note with it: 1.0 µM, up to 60 min. The method, then: (§33) Duplicate samples of human recombinant CYP enzyme isotypes CYP1A2, CYP2B6, CYP2C8, CYP2C9, CYP2C19, CYP2D6, CYP3A4, CYP3A5 (10–30 pmol/mL) with NADPH as cofactor were incubated with fexinidazole, fexinidazole sulfoxide, or fexinidazole sulfone at a concentration of 1.0 µM for up to 60 min (pH 7.4, 37°C). Detection of the compounds was via HPLC-MS.

The target of a further data set is CYP2B6 (Homo sapiens, UniProt P20813). Description: In vitro CYP-450 metabolism. The following applies: 1.0 µM, up to 60 min. Type of data set: in vitro ADME. The method, then:
as §33

The target of another data set is CYP2C19 (Homo sapiens, UniProt P33261). Put plainly: In vitro CYP-450 metabolism. The class given is in vitro ADME. The following applies: 1.0 µM, up to 60 min. The method, then:
as §33

A further data set deals with CYP2C8 (Homo sapiens, UniProt P10632). Put plainly: In vitro CYP-450 metabolism. Type of data set: in vitro ADME. The note with it: 1.0 µM, up to 60 min. The method, then: as §33
The target of another data set is CYP2C9 (Homo sapiens, UniProt P11712). Put plainly: In vitro CYP-450 metabolism. Type of data set: in vitro ADME. The note with it: 1.0 µM, up to 60 min. As to the method:
as §33

The next data set has as its target CYP3A4 (Homo sapiens, UniProt P08684). Put plainly: In vitro CYP-450 metabolism. The class given is in vitro ADME. The note with it: 1.0 µM, up to 60 min. As to the method: as §33
The target in a further data set is CYP3A5 (Homo sapiens, UniProt P20815). Description: In vitro CYP-450 metabolism. The class given is in vitro ADME. The note with it: 1.0 µM, up to 60 min. As to the method: as §33
Data set [3] can be described thus: Stability of drug substance and dosing suspensions. The class given is physicochemical. The note with it: stability data to date. The method, then:
page 4: […] Pharmacokinetic Report for the study No. 0403-2007 4. METHODS […] […] 4.2. […] The suspensions were stored at +4°C. […] Three samples were analyzed for each suspension. 4.3. […] Blood was taken at […] 4.4.

Chain of CYP3A4 (P08684 whole entry): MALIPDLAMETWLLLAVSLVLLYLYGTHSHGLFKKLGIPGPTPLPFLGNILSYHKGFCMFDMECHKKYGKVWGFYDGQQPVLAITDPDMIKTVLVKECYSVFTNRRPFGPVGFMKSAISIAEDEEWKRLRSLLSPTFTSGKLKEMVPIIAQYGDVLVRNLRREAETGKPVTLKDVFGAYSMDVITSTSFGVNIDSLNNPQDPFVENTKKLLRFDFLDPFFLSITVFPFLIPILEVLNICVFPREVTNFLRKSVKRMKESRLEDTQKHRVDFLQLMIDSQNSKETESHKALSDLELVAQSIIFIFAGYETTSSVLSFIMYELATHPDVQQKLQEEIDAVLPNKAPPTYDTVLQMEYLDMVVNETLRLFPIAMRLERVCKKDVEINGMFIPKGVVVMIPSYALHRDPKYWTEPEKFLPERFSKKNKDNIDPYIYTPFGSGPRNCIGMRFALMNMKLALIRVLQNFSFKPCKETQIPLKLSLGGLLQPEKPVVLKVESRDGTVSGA
Chain of CYP2C8 (P10632 whole entry): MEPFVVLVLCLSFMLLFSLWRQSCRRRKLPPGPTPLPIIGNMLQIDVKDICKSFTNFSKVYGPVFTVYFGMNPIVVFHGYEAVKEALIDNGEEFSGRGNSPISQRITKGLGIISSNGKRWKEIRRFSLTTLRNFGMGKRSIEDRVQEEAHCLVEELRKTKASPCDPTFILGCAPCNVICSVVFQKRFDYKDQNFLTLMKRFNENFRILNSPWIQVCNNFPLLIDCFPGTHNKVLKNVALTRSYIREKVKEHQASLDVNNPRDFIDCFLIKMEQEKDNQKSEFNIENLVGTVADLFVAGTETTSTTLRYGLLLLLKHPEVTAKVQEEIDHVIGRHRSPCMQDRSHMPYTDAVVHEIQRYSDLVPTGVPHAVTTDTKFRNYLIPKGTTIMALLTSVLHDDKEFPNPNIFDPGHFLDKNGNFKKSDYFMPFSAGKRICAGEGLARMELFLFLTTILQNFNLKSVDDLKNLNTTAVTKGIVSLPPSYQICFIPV
Chain of CYP2B6 (P20813 whole entry): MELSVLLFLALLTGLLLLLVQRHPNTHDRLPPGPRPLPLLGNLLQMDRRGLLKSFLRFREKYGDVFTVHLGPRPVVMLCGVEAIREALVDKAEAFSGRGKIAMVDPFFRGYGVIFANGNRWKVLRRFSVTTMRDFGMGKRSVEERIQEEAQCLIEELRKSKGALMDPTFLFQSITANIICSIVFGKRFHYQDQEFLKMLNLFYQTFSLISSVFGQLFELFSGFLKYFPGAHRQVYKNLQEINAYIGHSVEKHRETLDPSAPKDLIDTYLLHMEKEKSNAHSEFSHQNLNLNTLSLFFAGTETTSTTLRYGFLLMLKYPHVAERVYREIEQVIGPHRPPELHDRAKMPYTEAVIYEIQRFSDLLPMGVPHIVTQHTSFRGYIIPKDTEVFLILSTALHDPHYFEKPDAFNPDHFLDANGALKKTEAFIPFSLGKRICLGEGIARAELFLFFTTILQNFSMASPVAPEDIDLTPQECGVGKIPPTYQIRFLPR
Chain of CYP3A5 (P20815 whole entry): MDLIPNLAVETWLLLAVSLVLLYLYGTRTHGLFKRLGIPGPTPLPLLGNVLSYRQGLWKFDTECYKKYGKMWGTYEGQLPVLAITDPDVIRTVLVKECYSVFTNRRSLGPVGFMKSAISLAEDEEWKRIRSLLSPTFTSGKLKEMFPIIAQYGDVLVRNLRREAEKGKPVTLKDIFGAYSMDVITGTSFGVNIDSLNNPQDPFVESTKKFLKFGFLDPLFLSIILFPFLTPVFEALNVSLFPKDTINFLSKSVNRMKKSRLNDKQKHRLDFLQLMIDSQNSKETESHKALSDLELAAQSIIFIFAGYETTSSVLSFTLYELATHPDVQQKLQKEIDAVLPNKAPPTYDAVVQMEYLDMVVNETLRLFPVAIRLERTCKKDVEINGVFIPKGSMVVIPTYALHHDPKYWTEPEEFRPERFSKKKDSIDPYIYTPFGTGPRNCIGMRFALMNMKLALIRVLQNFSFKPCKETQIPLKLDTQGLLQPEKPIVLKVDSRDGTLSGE
Chain of CYP2C9 (P11712 whole entry): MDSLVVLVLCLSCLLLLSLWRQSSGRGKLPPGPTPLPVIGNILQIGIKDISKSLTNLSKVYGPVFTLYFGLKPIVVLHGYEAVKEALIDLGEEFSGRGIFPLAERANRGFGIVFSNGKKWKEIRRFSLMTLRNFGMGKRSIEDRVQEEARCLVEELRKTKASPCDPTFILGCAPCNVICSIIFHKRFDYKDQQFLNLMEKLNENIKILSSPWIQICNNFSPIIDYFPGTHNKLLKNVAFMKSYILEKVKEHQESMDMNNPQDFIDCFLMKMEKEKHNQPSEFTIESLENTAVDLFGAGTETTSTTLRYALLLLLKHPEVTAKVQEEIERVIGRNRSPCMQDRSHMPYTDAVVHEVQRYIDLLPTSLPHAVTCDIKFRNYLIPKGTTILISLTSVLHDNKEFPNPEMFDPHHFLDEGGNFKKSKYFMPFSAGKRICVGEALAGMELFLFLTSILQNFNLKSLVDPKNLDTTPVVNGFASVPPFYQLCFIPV
Chain of CYP2C19 (P33261 whole entry): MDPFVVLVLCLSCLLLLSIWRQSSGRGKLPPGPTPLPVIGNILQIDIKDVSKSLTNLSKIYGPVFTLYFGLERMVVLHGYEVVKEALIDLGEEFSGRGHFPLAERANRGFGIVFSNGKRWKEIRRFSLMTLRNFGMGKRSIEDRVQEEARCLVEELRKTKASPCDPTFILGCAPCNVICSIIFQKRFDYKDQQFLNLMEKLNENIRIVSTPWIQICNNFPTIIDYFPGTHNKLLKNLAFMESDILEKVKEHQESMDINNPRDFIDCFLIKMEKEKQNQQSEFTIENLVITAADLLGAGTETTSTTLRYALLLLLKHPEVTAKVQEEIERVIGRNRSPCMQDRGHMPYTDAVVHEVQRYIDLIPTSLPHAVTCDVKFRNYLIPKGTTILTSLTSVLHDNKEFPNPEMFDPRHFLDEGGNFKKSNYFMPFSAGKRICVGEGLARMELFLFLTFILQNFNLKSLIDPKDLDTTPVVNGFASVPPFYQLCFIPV
Chain of CYP1A2 (P05177 whole entry): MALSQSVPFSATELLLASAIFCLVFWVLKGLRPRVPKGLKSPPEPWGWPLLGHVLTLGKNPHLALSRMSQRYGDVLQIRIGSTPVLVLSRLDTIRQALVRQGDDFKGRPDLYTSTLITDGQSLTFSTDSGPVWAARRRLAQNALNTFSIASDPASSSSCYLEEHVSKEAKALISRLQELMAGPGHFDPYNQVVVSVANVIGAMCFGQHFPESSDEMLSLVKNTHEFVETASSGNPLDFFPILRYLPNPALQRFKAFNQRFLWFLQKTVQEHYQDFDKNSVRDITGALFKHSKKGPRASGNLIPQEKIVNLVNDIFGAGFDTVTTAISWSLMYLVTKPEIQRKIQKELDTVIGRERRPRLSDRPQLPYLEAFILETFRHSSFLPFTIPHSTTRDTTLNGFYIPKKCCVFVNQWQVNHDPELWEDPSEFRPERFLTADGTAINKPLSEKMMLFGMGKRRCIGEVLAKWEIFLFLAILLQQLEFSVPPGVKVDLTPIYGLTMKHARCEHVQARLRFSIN

Take `CSc1ccc(OCc2ncc([N+](=O)[O-])n2C)cc1` [Fexinidazole, 1-methyl-2-((p-(methylthio)phenoxy)methyl)-5-nitroimidazole]: the Cured/infected is recorded as 0/8 in the data set on T. b. brucei GVR35 (50 mg/kg×5 days po), 2/8 with T. b. brucei GVR35 (100 mg/kg×5 days po) and 7/8 in the data set on T. b. brucei GVR35 (200 mg/kg×5 days po). In addition, the Mean relapse time in the data set on T. b. brucei GVR35 (50 mg/kg×5 days po) was 41.3 days; in the data set on T. b. brucei GVR35 (100 mg/kg×5 days po) it was greater than 82.1 days; in the data set on T. b. brucei GVR35 (200 mg/kg×5 days po), greater than 163.8 days. The compound also had a cure with T. b. brucei GVR35 (100 mg/kg twice per day for 5 days po, groups of 5 mice, two independent experiments) of 100%. Besides, the half-life (as a rule, how long it takes for the measured level to halve) at 1 µM was 1.4 min in [1] and 1.2 min in data set [2]. For the same compound, the CLint scaled at 1 µM in data set [1] (read-out: CLint in vitro) and in data set [2] (read-out: CLint in vitro) was greater than 3000 mL/min/kg throughout. For the same compound, the values for the hepatocyte CLint at 1 µM in data set [1] (read-out: CLint in vitro) and in data set [2] (read-out: CLint in vitro) were 1630 µL/min/1e6 cells and 602 µL/min/1e6 cells, respectively. The “metabolism by the enzyme” value is “extensively metabolised” on CYP1A2; “extensively metabolised” on CYP2B6; “extensively metabolised” at CYP2C19; “inactive” on CYP2C8; “inactive” at CYP2C9; “extensively metabolised” at CYP3A4. Also, the “metabolism by the enzyme” value at CYP3A5 is recorded as “extensively metabolised”. In data set [3], the stability result was “very stable”.
